According to paper PMC10202811 (Nature Medicine, 2023):
“And” between values parts separate entries of the source, which are not always exact repeats. Equal values may be shown once. Marks after values point to notes of the source that are not given here.

Test: Toxicity assessment (CTCAE version 4): treatment-related AEs, DLTs, dose reductions, RP2D; phase 1 NANT2015-02
Description: Five DLs (45, 60, 75, 95 and 115 mg/m^2/dose) were assessed in A1, using a 3 + 3 design. […] Myeloid growth factor was given 24 hours after the completion of topotecan/cyclophosphamide on B2, according to institutional standards. Instructions and hands-on training for a tablet dispersion formulation, validated by Pfizer, was provided to families of patients who could not swallow tablets.
Initially, this was the only DL planned, but, with a subsequent amendment, a second DL was added to cohort A2 (150 mg). […] Finally, because of the nature of the patients in cohort A2 (which had only two planned DLs), an expansion of up to six additional patients was planned for the highest DL tested with zero or one DLT in six DLT-evaluable patients. Accrual could continue in the expansion cohort as long as none, or at most one, of the patients experienced DLT in the DLT observation period; if two or more patients experienced DLT in the DLT observation period, this would lead to a discussion of the suitability of this dose. The probability of observing […] with DLT, out of six patients, is 0.11, 0.22, 0.47, 0.68 and 0.77 when the true probability of DLT is 0.10, 0.15, 0.25, 0.35 and 0.40, respectfully.
Patients who were not evaluable for DLT were replaced for dose-escalation purposes. […] The MTD was defined as the highest DL tested at which zero of six or one of six patients experience DLT. After determination of the MTD and review of all toxicities, and provided that other safety considerations were acceptable, the MTD was labeled the RP2D.
Toxicity was graded according to CTCAE version 4. DLT definitions included only toxicities deemed at least possibly related to therapy. For A1 and A2, hematologic DLT was defined as grade 4 thrombocytopenia or grade 4 neutropenia >7-day duration or a delay in the start of subsequent course by more than 14 days due to ongoing thrombocytopenia or neutropenia, in the absence of bone marrow disease progression seen on clinically indicated bone marrow biopsy (if performed). For cohort B2, hematological DLT is defined as a delay in the start of subsequent course by more than 14 days due to ongoing thrombocytopenia or neutropenia, in the absence of bone marrow disease progression seen on clinically indicated bone marrow biopsy after the first dose reduction of cyclophosphamide and topotecan. Non-hematologic DLT was defined as any non-hematologic toxicity that delayed the start of a subsequent cycle by more than 14 days or any grade ≥3 toxicity, with the exception of the following grade 3 toxicities: nausea, vomiting, anorexia or dehydration resolving to grade ≤2 within 72 hours; increase in hepatic transaminase or electrolyte abnormality resolving eligibility levels within 7 days; diarrhea persisting for less than 72 hours; fever; infection; febrile neutropenia; high cholesterol or triglycerides if responsive (to ≤grade 2) with statin treatment; weight gain; and hyperglycemia if responsive (to <grade 2) with dietary modification.

[1] = Cohort A1, one line per patient (PID)
[2] = Cohort A2, neurotoxicity, one line per patient (PID)
[3] = Cohort A2, one line per patient (PID)
[4] = patients <18 years, single agent
[5] = single-agent lorlatinib across all ages, grade 1–4 treatment-related

C[C@H]1Oc2cc(cnc2N)-c2c(nn(C)c2C#N)CN(C)C(=O)c2ccc(F)cc21 [Lorlatinib, (10R)-7-amino-12-fluoro-2,10,16-trimethyl-15-oxo-10,15,16,17-tetrahydro-2H-8,4-(metheno)pyrazolo[4,3-h][2,5,11]-benzoxadiazacyclotetradecine-3-carbonitrile]
Nausea: Toxicity Maximum Grade per patient [1]: 1 | Neutrophil count decreased: Toxicity Maximum Grade per patient [1]: 2 | Peripheral sensory neuropathy: Toxicity Maximum Grade per patient [1]: 2 and 1 | Platelet count decreased: Toxicity Maximum Grade per patient [1]: 1 | Tinnitus: Toxicity Maximum Grade per patient [1]: 1 | Vomiting: Toxicity Maximum Grade per patient [1]: 1 | Weight gain: Toxicity Maximum Grade per patient [1]: 2 and 3 and 1 | White blood cell decreased: Toxicity Maximum Grade per patient [1]: 1 and 3 | Patients with DLT in course 1 (Cohort A2, 100 mg): 0 | Patients with DLT in course 2 (Cohort A2, 100 mg): 0 | Patients with DLT in other courses (Cohort A2, 100 mg): 2^c | Patients with DLT in course 1 (Cohort A2, 150 mg): 1^d | Patients with DLT in course 2 (Cohort A2, 150 mg): 2^e,f | Patients with DLT in other courses (Cohort A2, 150 mg): 3^e,f,g | Toxicity Maximum Grade per patient: Sinus tachycardia (Cohort A2, patient PID 8, CTCAE grade): 1 | Neutrophil count decreased (Cohort A2, grade 1-2, 3, 4 in c8-c10): 0 (0) n (%) | Hypersomnia (CNS effect) (Cohort A2, grade 1-4 in c5-c8): 0 (0) | Agitation: Toxicity Maximum Grade per patient [2]: 4 and 3 and 1 | Anxiety: Toxicity Maximum Grade per patient [2]: 4 and 3 and 2 and 1 | Cognitive disturbance: Toxicity Maximum Grade per patient [2]: 1 and 2 | Concentration impairment: Toxicity Maximum Grade per patient [2]: 1 and 2 and 3 | Depression: Toxicity Maximum Grade per patient [2]: 1 and 3 | Hallucinations: Toxicity Maximum Grade per patient [2]: 1 and 4 | Headache: Toxicity Maximum Grade per patient [2]: 1 | Memory impairment: Toxicity Maximum Grade per patient [2]: 1 and 2 and 3 | Alanine aminotransferase increased: Toxicity Maximum Grade per patient [3]: 1 and 2 | Alkaline phosphatase increased: Toxicity Maximum Grade per patient [3]: 1 | Anemia: Toxicity Maximum Grade per patient [3]: 3 and 1 and 2 | Aspartate aminotransferase increased: Toxicity Maximum Grade per patient [3]: 1 and 2 | Cholesterol high: Toxicity Maximum Grade per patient [3]: 2 and 3 and 1 | Creatinine increased: Toxicity Maximum Grade per patient [3]: 1 and 2 | Diarrhea: Toxicity Maximum Grade per patient [3]: 2 and 1 | Edema limbs: Toxicity Maximum Grade per patient [3]: 1 and 2 | Electrocardiogram QT corrected interval prolonged: Toxicity Maximum Grade per patient [3]: 1 | Fatigue: Toxicity Maximum Grade per patient [3]: 1 | Flatulence: Toxicity Maximum Grade per patient [3]: 1 | Gastroesophageal reflux disease: Toxicity Maximum Grade per patient [3]: 2 and 1 | Hyperglycemia: Toxicity Maximum Grade per patient [3]: 1 and 3 | Hypertriglyceridemia: Toxicity Maximum Grade per patient [3]: 3 and 2 and 1 | INCREASED APPETITE: Toxicity Maximum Grade per patient [3]: 1 and 2 | Irritability: Toxicity Maximum Grade per patient [3]: 4 | Lymphocyte count decreased: Toxicity Maximum Grade per patient [3]: 4 and 1 | Nausea: Toxicity Maximum Grade per patient [3]: 1 and 2 | Peripheral sensory neuropathy: Toxicity Maximum Grade per patient [3]: 3 and 2 and 1 | Platelet count decreased: Toxicity Maximum Grade per patient [3]: 1 and 2 | Tinnitus: Toxicity Maximum Grade per patient [3]: 1 | Vomiting: Toxicity Maximum Grade per patient [3]: 1 | Weight gain: Toxicity Maximum Grade per patient [3]: 2 and 1 and 3 | White blood cell decreased: Toxicity Maximum Grade per patient [3]: 1 and 2 | Patients with DLT in course 1 (Cohort B2, DL4 (95 mg/m^2)): 0 | Patients with DLT in course 2 (Cohort B2, DL4 (95 mg/m^2)): 0 | Patients with DLT in other courses (Cohort B2, DL4 (95 mg/m^2)): 0 | Patients with DLT in course 1 (Cohort B2, DL5 (115 mg/m^2)): 0 | Patients with DLT in course 2 (Cohort B2, DL5 (115 mg/m^2)): 0 | Patients with DLT in other courses (Cohort B2, DL5 (115 mg/m^2)): 1^h | Amnesia (CNS effect) (Cohort B2, grade 1-4 in c9-c12): 0 (0) | Delirium (CNS effect) (Cohort B2, grade 1-4 in c9-c12): 0 (0) | Delusions (CNS effect) (Cohort B2, grade 1-4 in c9-c12): 0 (0) | Depressed level of consciousness (CNS effect) (Cohort B2, grade 1-4 in c9-c12): 0 (0) | Dizziness (CNS effect) (Cohort B2, grade 1-4 in c9-c12): 0 (0) | Dysarthria (CNS effect) (Cohort B2, grade 1-4 in c9-c12): 0 (0) | Euphoria (CNS effect) (Cohort B2, grade 1-4 in c9-c12): 0 (0) | Mania (CNS effect) (Cohort B2, grade 1-4 in c9-c12): 0 (0) | Paresthesia (CNS effect) (Cohort B2, grade 1-4 in c9-c12): 0 (0) | Psychosis (CNS effect) (Cohort B2, grade 1-4 in c9-c12): 0 (0) | Restlessness (CNS effect) (Cohort B2, grade 1-4 in c9-c12): 0 (0) | Stuttering (CNS effect) (Cohort B2, grade 1-4 in c9-c12): 0 (0) | Suicidal ideation (CNS effect) (Cohort B2, grade 1-4 in c9-c12): 0 (0) | incidence of peripheral neuropathy (adults, single agent): 27% | RP2D (in combination with topotecan/cyclophosphamide, patients <18 years, daily (DL5)): 115 mg/m^2 | hypertriglyceridemia, patients with AE (lorlatinib combined with topotecan/cyclophosphamide, <18 years): 89% | Grade 1–2 peripheral limb edema [4]: 4% | incidence of peripheral neuropathy [4]: 13% | Grade 1–2 peripheral limb edema (patients ≥18 years, single agent): 47% | RP2D <18 years relative to the adult RP2D (single agent, 115 mg/m^2/dose daily): approximately 200% | RP2D (single agent, patients <18 years, daily (DL5)): 115 mg/m^2 | RP2D (single agent, patients ≥18 years, daily): 150 mg | hypercholesterolemia / elevated cholesterol, patients with AE [5]: 79% | hypertriglyceridemia, patients with AE [5]: 90% | weight gain, patients with AE [5]: 87% | patients developing grade 2–4 CNS effects (≥18 years (cohort A2), four of 15): 27% | patients requiring dose reduction due to toxicities (≥18 years, 150 mg (n = 10)): 50%
